Values joined by “and” are separate entries in the source; they are usually repeats but may differ in a detail not shown here. Equal entries are not always repeated. Where two headings read alike, the source gives them in different places.
Tests used:
hA1AR [1] = molecular target: T1, hA1AR (Homo sapiens, UniProt P30542); assay: hA1AR radioligand binding, CHO cell membranes; conditions: for hA1AR selectivity compared to hA3AR: ratio of binding Ki
T1 sequence (P30542 1-326): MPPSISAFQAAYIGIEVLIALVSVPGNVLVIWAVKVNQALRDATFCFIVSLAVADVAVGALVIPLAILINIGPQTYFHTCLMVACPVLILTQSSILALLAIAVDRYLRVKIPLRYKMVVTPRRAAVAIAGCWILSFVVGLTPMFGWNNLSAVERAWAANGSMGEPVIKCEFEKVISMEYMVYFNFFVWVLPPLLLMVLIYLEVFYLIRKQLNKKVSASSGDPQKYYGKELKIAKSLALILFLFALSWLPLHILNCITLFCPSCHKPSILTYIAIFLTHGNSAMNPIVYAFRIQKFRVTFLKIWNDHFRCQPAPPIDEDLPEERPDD

wild-type C57BL/6J mice [2] = assay: Body temperature and locomotor activity by telemetry after ip. dosing; type: in vivo, mouse; conditions: for Effect on Tb in WT mice: ip., up to 3 or 10 mg/kg
[3] = system: off-target receptors and transporters; assay: PDSP off-target screen; type: binding, human
hA1AR [4] = molecular target: T1, hA1AR; conditions: human (h); at 10 μM; ref [33],[34]; cited from earlier work
mA1AR = molecular target: T2, mA1AR (Mus musculus, UniProt Q60612); assay: mA1AR radioligand binding; conditions: ratio of binding Ki
T2 sequence (Q60612 1-326): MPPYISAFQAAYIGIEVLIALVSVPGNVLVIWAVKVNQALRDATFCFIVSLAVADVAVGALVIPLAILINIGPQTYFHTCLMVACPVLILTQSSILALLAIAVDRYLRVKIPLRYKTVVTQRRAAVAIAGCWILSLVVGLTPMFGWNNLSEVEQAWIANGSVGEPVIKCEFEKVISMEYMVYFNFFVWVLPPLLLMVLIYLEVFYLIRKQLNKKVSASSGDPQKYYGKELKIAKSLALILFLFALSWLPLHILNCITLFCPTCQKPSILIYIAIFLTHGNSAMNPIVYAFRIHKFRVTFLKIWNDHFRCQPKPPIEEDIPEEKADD

hA2BAR = molecular target: T3, hA2BAR (Homo sapiens, UniProt P29275); assay: hA2BAR radioligand binding using [3H]54; conditions: read-out: hA2BAR % binding inhibition at 10 μM
T3 sequence (P29275 1-332): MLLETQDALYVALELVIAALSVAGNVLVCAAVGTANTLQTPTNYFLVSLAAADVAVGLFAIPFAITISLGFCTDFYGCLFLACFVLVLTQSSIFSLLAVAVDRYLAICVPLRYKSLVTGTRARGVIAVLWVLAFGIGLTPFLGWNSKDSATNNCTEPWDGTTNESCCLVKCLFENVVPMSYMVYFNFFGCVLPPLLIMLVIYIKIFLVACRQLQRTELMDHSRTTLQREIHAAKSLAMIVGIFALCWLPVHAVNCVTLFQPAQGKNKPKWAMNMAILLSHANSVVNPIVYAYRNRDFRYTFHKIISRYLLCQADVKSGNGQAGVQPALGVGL

wild-type C57BL/6J mice [5] = conditions: average from dosing to 60 min, ref [30], cited from earlier work
A1AR, A3AR [6] = conditions: ref [30]; cited from earlier work
anesthetized rat = assay: Cardiovascular effects in the anesthetized rat; type: in vivo; conditions: 0.02 mg/kg, iv., preliminary
bovine A1AR = conditions: read-out: Ki at bovine A1AR; ref [36],[37]; cited from earlier work
A1AR, A3AR [7] = assay: Hypothermia in A1AR, A3AR and A1AR/A3AR deficient mice; type: in vivo, mouse; conditions: 3 mg/kg ip.
mice = assay: Hypothermia after intracerebroventricular infusion; type: in vivo, mouse

Nc1nc(Cl)nc2c1ncn2[C@H]1[C@H](O)[C@H](O)[C@]2(CCl)C[C@H]12 [Compound 22]
hA1AR affinity relative to 21 (hA1AR [1]; higher affinity than parent 21): 14 fold

O[C@H]1[C@H](n2cnc3c(N[C@H]4C[C@H]5CC[C@@H]4C5)nc(Cl)nc32)[C@H]2C[C@@]2(CCl)[C@H]1O [Compound 31, (1S,2R,3S,4R,5S)-4-(6-(((1R,2S,4S)-Bicyclo[2.2.1]heptan-2-yl)amino)-2-chloro-9H-purin-9-yl)-1-(chloromethyl)bicyclo[3.1.0]hexane-2,3-diol]
Effect on Tb in WT mice (wild-type C57BL/6J mice [2]): did not significantly induce hypothermia
Off-target, receptor: interactions found [3]: none
hA1AR selectivity compared to hA3AR (hA1AR [1]): 10 fold

CCNC(=O)[C@H]1O[C@@H](n2cnc3c(N)ncnc32)[C@H](O)[C@@H]1O [Compound 16, reference compound]
Off-target, receptor: interactions found [3]: none

O[C@@H]1[C@H](O)[C@@H]2C[C@@H]2[C@H]1n1cnc2c(NC(C3CCCC3)C3CCCC3)nc(Cl)nc21 [Compound 20]
A1AR % inhibition (hA1AR [4]): 34±3% (h)

OC[C@@]12C[C@@H]1[C@@H](n1cnc3c(N[C@H]4C[C@H]5CC[C@@H]4C5)nc(Cl)cc31)[C@H](O)[C@@H]2O [Compound 30]
Off-target, receptor: interactions found [3]: none

O[C@H]1[C@H](n2cnc3c(NC(C4CCC4)C4CCC4)ncnc32)[C@H]2C[C@@]2(CCl)[C@H]1O [Compound 26, (1S,2R,3S,4R,5S)-1-(Chloromethyl)-4-(6-((dicyclobutylmethyl)amino)-9H-purin-9-yl)bicyclo[3.1.0]hexane-2,3-diol]
mA1AR selectivity compared to mA3AR (mA1AR): 890 fold
hA1AR selectivity compared to hA3AR (hA1AR [1]): ~ 300 fold

CCOC(=O)[C@@]12C[C@@H]1[C@@H](n1cnc3c(NC(C4CCC4)C4CCC4)nc(Cl)nc31)[C@H](O)[C@@H]2O [Compound 35]
inhibition at 10 µM (hA2BAR): 38%

OC[C@H]1O[C@@H](n2cnc3c(NC4CCCC4)ncnc32)[C@H](O)[C@@H]1O [Compound 1a]
Tb (wild-type C57BL/6J mice [5]; 1 mg/kg ip.): 32.4±0.5 °C
ARs causing hypothermia (A1AR, A3AR [6]): A3AR > A1AR[30]

OC[C@H]1O[C@@H](n2cnc3c(NC4CCCC4)nc(Cl)nc32)[C@H](O)[C@@H]1O [Compound 2]
Effect on blood pressure (anesthetized rat): sustained rise in blood pressure

OC[C@H]1O[C@@H](n2cnc3c(NC(C4CCC4)C4CCC4)nc(Cl)nc32)[C@H](O)C1O (stereo in doubt) [Compound 12, (2R,3R,4R,5R)-2-(2-Chloro-6-((dicyclobutylmethyl)amino)-9H-purin-9-yl)-5-(hydroxymethyl)tetrahydrofuran-3,4-diol]
Tb (wild-type C57BL/6J mice [2]; 3 mg/kg ip., average from dosing to 60 min, mean ±SD): 35.5±0.8 °C
hA1AR affinity relative to 9 (hA1AR [1]; lower affinity than 9): 8 fold
hA1AR selectivity compared to hA3AR (hA1AR [1]): 742 fold

O[C@@H]1[C@H](O)[C@@H](CCl)O[C@H]1n1cnc2c(NC(C3CCC3)C3CCC3)ncnc21 [Compound 10, (2S,3S,4R,5R)-2-(Chloromethyl)-5-(6-((dicyclobutylmethyl)amino)-9H-purin-9-yl)tetrahydrofuran-3,4-diol]
mA1AR selectivity compared to mA3AR (mA1AR): 2970 fold and > 2000 fold
hA1AR selectivity compared to hA3AR (hA1AR [1]): 3390 fold

NC(=O)c1ncn([C@@H]2O[C@H](CO)[C@@H](O)[C@H]2O)n1 [Compound 38, ribavirin, reference compound]
Ki (bovine A1AR): 86 µM
inhibition at 10 µM (hA2BAR): 39%

O[C@@H]1[C@H](O)[C@@H](CCl)O[C@H]1n1cnc2c(NC3C[C@H]4CC[C@@H]3C4)ncnc21 (stereo partly drawn) [Compound 4]
Tb (wild-type C57BL/6J mice [5]; 3 mg/kg ip.): 32.2±1.3 °C
ARs causing hypothermia (A1AR, A3AR [6]): A1AR > A3AR[30]

OC[C@@]12C[C@@H]1[C@@H](n1cnc3c(N[C@H]4C[C@H]5CC[C@@H]4C5)nc(Cl)nc31)[C@H](O)[C@@H]2O [Compound 29, (1R,2R,3S,4R,5S)-4-(6-(((1R,2S,4S)-Bicyclo[2.2.1]heptan-2-yl)amino)-2-chloro-9H-purin-9-yl)-1-(hydroxymethyl)bicyclo[3.1.0]hexane-2,3-diol]
Effect on Tb in WT mice (wild-type C57BL/6J mice [2]): hypothermic effect
Receptor dependence of hypothermia (A1AR, A3AR [7]; A1AR KO, A3AR KO, double KO mice): via both central A1AR and peripheral A3AR
ARs causing hypothermia (A1AR, A3AR [7]; WT vs AR-KO mice (Figure 2)): A3AR > A1AR (Figure 2)
hA1AR selectivity compared to hA3AR (hA1AR [1]): 12 fold

CNC(=O)[C@H]1O[C@@H](n2cnc3c(N)ncnc32)[C@H](O)[C@@H]1O [Compound 15, reference compound]
Off-target, receptor: interactions found [3]: none

NC(=O)c1ncn([C@H]2[C@H](O)[C@H](O)[C@]3(CO)C[C@H]23)n1 [Compound 40]
mA1AR selectivity compared to mA3AR (mA1AR): 25.2 nM (~400) fold
hA1AR affinity relative to 38 (hA1AR [1]; greater affinity than riboside 38): 15 fold

OC[C@@]12C[C@@H]1[C@@H](n1cnc3c(NC(C4CCC4)C4CCC4)ncnc31)[C@H](O)[C@@H]2O [Compound 24, (1R,2R,3S,4R,5S)-4-(6-((Dicyclobutylmethyl)amino)-9H-purin-9-yl)-1-(hydroxymethyl)bicyclo[3.1.0]hexane-2,3-diol]
A1AR selectivity (hA1AR [1]; abstract, species and comparator not stated): ~ 400 fold
Effect on Tb after icv. administration (mice; 1.67 μg/mouse icv. (= […])): reduced Tb only slightly
Tb reached after icv. administration (mice; 5 μg injected icv. (equivalent to […])): ~ 24 °C

O[C@@H]1[C@H](O)[C@@H]2C[C@@H]2[C@H]1n1cnc2c(NC(C3CCC3)C3CCC3)nc(Cl)nc21 [Compound 19]
inhibition at 10 µM (hA2BAR): 24%

— PMC6467784 (Journal of medicinal chemistry, 2019)
